Measured values taken from patent US8759104B2, “Cationic lipids” (The University Court of the University of Edinburgh, priority 2010, dated 2014).

test system: HeLa cells; test: Transfection of pEGFP-C1 reporter plasmid into HeLa cells, GFP expression by flow cytometry; type: cell-based, human; details: HeLa cells 48 h after transfection with reporter plasmid, flow cytometry
Method: The corresponding cationic lipid (1 mM in methanol) were mixed in different proportions with DOPE (10 mg/mL in chloroform) and the organic solvent removed by evaporation in an oven (37° C.) overnight. The resultant thin films were then hydrated with PBS. The solutions were vortexed (10-20 s) and incubated at ambient temperature for 20 min. Plasmid DNA or siRNA solution (0.04 mg/mL in PBS or another isotonic solution) was subsequently added and the solution vortexed (10-20 s). The lipoplexes were incubated at room temperature for 20 min before being used.
Human HeLa cells were grown in RPMI supplemented with 4 mM glutamine, 10% FCS and 100 units/ml penicillin/streptomycin (RPMI-CM) until 80% confluence. HEK293 and B16F10 cells were grown in DMEM supplemented with 4 mM glutamine, 10% FCS and 100 units/ml penicillin/streptomycin (DMEM-CM) until 80% confluence. Cells were then suspended using trypsin/EDTA and counted. 2×10^4 cells in 150 μL of media per well were seeded in 96 well plates and incubated overnight. The day afterwards, the different lipoplex formulations were added. Each experiment was performed in quadruplicate, using Effectene® Transfection Reagent (Qiagen), Lipofectamine™ 2000 (Invitrogen) and Fugene (Roche) as positive controls and untreated cells as negative controls. After two days incubation at 37° C. and 5% CO2 (the change of media after transfection was not necessary), the green fluorescent protein (GFP) expression, as a consequence of transfecting the pEGFP-C1, was evidenced using a fluorescent microscope (Leica) and measured by flow cytometry. For the flow cytometry analysis, cells were washed twice with PBS, detached with trypsin/EDTA, harvested with 2% ferum bovine serum (FBS) in PBS, centrifuged and resuspended with 2% FBS in PBS and analyzed using a BD FACSaria flow cytometer. Transfection efficiency was measured as percentage of transfected cells.
Reagents that obtained greater than 50% transfection were also analyzed against HEK293 and B16F10 cell lines. Transfection results (+ percentages of transfection between 5-25%; ++ percentages of transfection between 25-50%; N.D. not determined). MTT toxicity assay results are indicated between brackets with 100% being cell viability of untreated cells.

| SMILES | Transfection results (percentage of transfected cells), HeLa |
| --- | --- |
| CCCCCCCCCCCCCCCC(=O)NCCN(CCNC(=O)CCCCCCCCCCCCCCC)C(=O)/C=C\C(=O)N[C@@H](CCCNC(=N)N)C(N)=O.O=C(O)C(F)(F)F [Compound A1-Sp2-P] | ++ (percentages of transfection between 25-50%) |
| CCCCCCCCCCCCCCCCCCCCCCCC(=O)NCCCN(CCCNC(=O)CCCCCCCCCCCCCCCCCCCCCCC)C(=O)/C=C\C(=O)N[C@@H](CCCNC(=N)N)C(=O)N[C@@H](CCCNC(=N)N)C(N)=O.O=C(O)C(F)(F)F.O=C(O)C(F)(F)F [Compound A2-Sp4-L] | + (percentages of transfection between 5-25%) |
| CCCCCCCCCCCCCCCCCCCCCCCC(=O)NCCN(CCNC(=O)CCCCCCCCCCCCCCCCCCCCCCC)C(=O)/C=C\C(=O)N[C@@H](CCCNC(=N)N)C(=O)N[C@@H](CCCNC(=N)N)C(=O)N[C@@H](CCCNC(=N)N)C(N)=O.O=C(O)C(F)(F)F.O=C(O)C(F)(F)F.O=C(O)C(F)(F)F [Compound A3-Sp2-L] | + (percentages of transfection between 5-25%) |
| CCCCCCCCCCCCCCCCCC(=O)NCCCN(CCCNC(=O)CCCCCCCCCCCCCCCCC)C(=O)/C=C\C(=O)N[C@@H](CCCNC(=N)N)C(N)=O.O=C(O)C(F)(F)F [Compound A1-Sp4-S] | + (percentages of transfection between 5-25%) |
| CCCCCCCCCCCCCCCCCC(=O)NCCCN(CCCNC(=O)CCCCCCCCCCCCCCCCC)C(=O)CCC(=O)N[C@@H](CCCNC(=N)N)C(=O)N[C@@H](CCCNC(=N)N)C(=O)N[C@@H](CCCNC(=N)N)C(N)=O.O=C(O)C(F)(F)F.O=C(O)C(F)(F)F.O=C(O)C(F)(F)F [Compound A3-Sp3-S] | + (percentages of transfection between 5-25%) |
| CCCCCCCCCCCCCCCCCC(=O)NCCN(CCNC(=O)CCCCCCCCCCCCCCCCC)C(=O)CCC(=O)N[C@@H](CCCNC(=N)N)C(=O)N[C@@H](CCCNC(=N)N)C(N)=O.O=C(O)C(F)(F)F.O=C(O)C(F)(F)F [Compound A2-Sp1-S] | + (percentages of transfection between 5-25%) |
| CCCCCCCCCCCCCCCC(=O)NCCCN(CCCNC(=O)CCCCCCCCCCCCCCC)C(=O)CCC(=O)N[C@@H](CCCNC(=N)N)C(=O)N[C@@H](CCCNC(=N)N)C(N)=O.O=C(O)C(F)(F)F.O=C(O)C(F)(F)F [Compound A2-Sp3-P] | + (percentages of transfection between 5-25%) |
| CCCCCCCCCCCCCCCCCCCCCCCC(=O)NCCN(CCNC(=O)CCCCCCCCCCCCCCCCCCCCCCC)C(=O)CCC(=O)N[C@@H](CCCNC(=N)N)C(=O)N[C@@H](CCCNC(=N)N)C(=O)N[C@@H](CCCNC(=N)N)C(N)=O.O=C(O)C(F)(F)F.O=C(O)C(F)(F)F.O=C(O)C(F)(F)F [Compound A3-Sp1-L] | + (percentages of transfection between 5-25%) |
| CCCCCCCC/C=C\CCCCCCCC(=O)NCCCN(CCCNC(=O)CCCCCCC/C=C\CCCCCCCC)C(=O)/C=C\C(=O)N[C@@H](CCCNC(=N)N)C(N)=O.O=C(O)C(F)(F)F [Compound A1-Sp4-O] | + (percentages of transfection between 5-25%) |
| CCCCCCCCCCCCCCCCCCCCCCCC(=O)NCCN(CCNC(=O)CCCCCCCCCCCCCCCCCCCCCCC)C(=O)CCC(=O)N[C@@H](CCCNC(=N)N)C(N)=O.O=C(O)C(F)(F)F [Compound A1-Sp1-L] | + (percentages of transfection between 5-25%) |
| CCCCCCCC/C=C\CCCCCCCC(=O)NCCCN(CCCNC(=O)CCCCCCC/C=C\CCCCCCCC)C(=O)/C=C\C(=O)N[C@@H](CCCNC(=N)N)C(=O)N[C@@H](CCCNC(=N)N)C(=O)N[C@@H](CCCNC(=N)N)C(N)=O.O=C(O)C(F)(F)F.O=C(O)C(F)(F)F.O=C(O)C(F)(F)F [Compound A3-Sp4-O] | + (percentages of transfection between 5-25%) |
| CCCCCCCCCCCCCCCCCCCC(=O)NCCCN(CCCNC(=O)CCCCCCCCCCCCCCCCCCC)C(=O)/C=C\C(=O)N[C@@H](CCCNC(=N)N)C(N)=O.O=C(O)C(F)(F)F [Compound A1-Sp4-A] | + (percentages of transfection between 5-25%) |
| CCCCCCCC/C=C\CCCCCCCC(=O)NCCN(CCNC(=O)CCCCCCC/C=C\CCCCCCCC)C(=O)CCC(=O)N[C@@H](CCCNC(=N)N)C(N)=O.O=C(O)C(F)(F)F [Compound A1-Sp1-O] | + (percentages of transfection between 5-25%) |
| CCCCCCCCCCCCCCCCCCCC(=O)NCCN(CCNC(=O)CCCCCCCCCCCCCCCCCCC)C(=O)CCC(=O)N[C@@H](CCCNC(=N)N)C(N)=O.O=C(O)C(F)(F)F [Compound A1-Sp1-A] | + (percentages of transfection between 5-25%) |
| CCCCCCCCCCCCCCCCCCCC(=O)NCCCN(CCCNC(=O)CCCCCCCCCCCCCCCCCCC)C(=O)CCC(=O)N[C@@H](CCCNC(=N)N)C(=O)N[C@@H](CCCNC(=N)N)C(=O)N[C@@H](CCCNC(=N)N)C(N)=O.O=C(O)C(F)(F)F.O=C(O)C(F)(F)F.O=C(O)C(F)(F)F [Compound A3-Sp3-A] | + (percentages of transfection between 5-25%) |
| CCCCCCCCCCCCCCCCCC(=O)NCCN(CCNC(=O)CCCCCCCCCCCCCCCCC)C(=O)CCC(=O)N[C@@H](CCCNC(=N)N)C(N)=O.O=C(O)C(F)(F)F [Compound A1-Sp1-S] | + (percentages of transfection between 5-25%) |
| CCCCCCCC/C=C\CCCCCCCC(=O)NCCCN(CCCNC(=O)CCCCCCC/C=C\CCCCCCCC)C(=O)CCC(=O)N[C@@H](CCCNC(=N)N)C(N)=O.O=C(O)C(F)(F)F [Compound A1-Sp3-O] | ++ (percentages of transfection between 25-50%) |
| CCCCCCCCCCCCCCCCCCCCCCCC(=O)NCCN(CCNC(=O)CCCCCCCCCCCCCCCCCCCCCCC)C(=O)CCC(=O)N[C@@H](CCCNC(=N)N)C(=O)N[C@@H](CCCNC(=N)N)C(N)=O.O=C(O)C(F)(F)F.O=C(O)C(F)(F)F [Compound A2-Sp1-L] | + (percentages of transfection between 5-25%) |
| CCCCCCCCCCCCCCCCCC(=O)NCCCN(CCCNC(=O)CCCCCCCCCCCCCCCCC)C(=O)/C=C\C(=O)N[C@@H](CCCNC(=N)N)C(=O)N[C@@H](CCCNC(=N)N)C(N)=O.O=C(O)C(F)(F)F.O=C(O)C(F)(F)F [Compound A2-Sp4-S] | + (percentages of transfection between 5-25%) |
| CCCCCCCCCCCCCCCCCCCCCCCC(=O)NCCCN(CCCNC(=O)CCCCCCCCCCCCCCCCCCCCCCC)C(=O)CCC(=O)N[C@@H](CCCNC(=N)N)C(=O)N[C@@H](CCCNC(=N)N)C(N)=O.O=C(O)C(F)(F)F.O=C(O)C(F)(F)F [Compound A2-Sp3-L] | + (percentages of transfection between 5-25%) |
| CCCCCCCCCCCCCCCCCC(=O)NCCN(CCNC(=O)CCCCCCCCCCCCCCCCC)C(=O)CCC(=O)N[C@@H](CCCNC(=N)N)C(=O)N[C@@H](CCCNC(=N)N)C(=O)N[C@@H](CCCNC(=N)N)C(N)=O.O=C(O)C(F)(F)F.O=C(O)C(F)(F)F.O=C(O)C(F)(F)F [Compound A3-Sp1-S] | ++ (percentages of transfection between 25-50%) |
| CCCCCCCCCCCCCCCCCCCC(=O)NCCN(CCNC(=O)CCCCCCCCCCCCCCCCCCC)C(=O)/C=C\C(=O)N[C@@H](CCCNC(=N)N)C(N)=O.O=C(O)C(F)(F)F [Compound A1-Sp2-A] | + (percentages of transfection between 5-25%) |
| CCCCCCCCCCCCCCCC(=O)NCCCN(CCCNC(=O)CCCCCCCCCCCCCCC)C(=O)CCC(=O)N[C@@H](CCCNC(=N)N)C(=O)N[C@@H](CCCNC(=N)N)C(=O)N[C@@H](CCCNC(=N)N)C(N)=O.O=C(O)C(F)(F)F.O=C(O)C(F)(F)F.O=C(O)C(F)(F)F [Compound A3-Sp3-P] | ++ (percentages of transfection between 25-50%) |
| CCCCCCCCCCCCCCCCCCCCCCCC(=O)NCCN(CCNC(=O)CCCCCCCCCCCCCCCCCCCCCCC)C(=O)/C=C\C(=O)N[C@@H](CCCNC(=N)N)C(=O)N[C@@H](CCCNC(=N)N)C(N)=O.O=C(O)C(F)(F)F.O=C(O)C(F)(F)F [Compound A2-Sp2-L] | + (percentages of transfection between 5-25%) |
| CCCCCCCCCCCCCCCCCC(=O)NCCCN(CCCNC(=O)CCCCCCCCCCCCCCCCC)C(=O)/C=C\C(=O)N[C@@H](CCCNC(=N)N)C(=O)N[C@@H](CCCNC(=N)N)C(=O)N[C@@H](CCCNC(=N)N)C(N)=O.O=C(O)C(F)(F)F.O=C(O)C(F)(F)F.O=C(O)C(F)(F)F [Compound A3-Sp4-S] | + (percentages of transfection between 5-25%) |
